Patent publication US20070231407A1, “Method of treating gallium-nitrate resistant tumors using gallium-containing compounds” (priority 2006, published 2007)
Values belong to the molecule of their own block, whether it stands above or below them.

Assays:
[1] = test system: MCL cell lines HBL2, JVM2, Z138C, and Granta; assay: MTT cell growth assay, mantle cell lymphoma (MCL) cell lines; type: cell-based, human; details: range over the four cell lines, 72 h, read-out: IC50, growth inhibition of MCL cell lines HBL2, JVM2, Z138C, and Granta
Protocol: Mantle cell lymphoma (HBL-2 (Human B-cell lymphoma-derived cell line), Granta, JVM-2, NCEB-1, Z138C) and DoHH2 cell lines were obtained from the British Columbia Cancer Agency. p53 cell lines were obtained from the NCI. Gallium maltolate and gallium nitrate were obtained from Titan Pharmaceuticals Inc. (San Francisco, Calif.) and Genta Incorporated (Berkley Heights, N.J.), respectively. Cell proliferation was measured by MTT assay (Mosmann T. “Rapid colorimetric assay for cellular growth and survival: Application to proliferation and cytotoxicity assays”. J Immunol Methods 1983; 65:55-63, incorporated by reference here in its entirety). Caspase-3 activity was measured by ApoOne assay (Promega, Madison, Wis.). […]
(§1) CCRF-CEM cells were plated at a density of 2×10^5 cells/ml in microwell plates (100 μL cell suspension per well) in the presence of increasing concentrations of gallium maltolate or maltol (subsequently referred to as the additives). […] Cells were then solubilized by the addition of 100 μL of 0.4 N HCl in isopropanol to each well and the absorbance of each well was read at 570 nm using a microplate reader. The effect of the additives on cell proliferation was determined by comparing the absorbance from wells containing the additives with the absorbance from wells in which the additives were omitted (decreased absorbance signifies decreased cell proliferation). […]

p53 wt TK-6 cells = assay: MTT cell growth assay, p53 wt TK-6 cells; type: cell-based, human; details: 72 h
Protocol: (§2) Mantle cell lymphoma (HBL-2 (Human B-cell lymphoma-derived cell line), Granta, JVM-2, NCEB-1, Z138C) and DoHH2 cell lines were obtained from the British Columbia Cancer Agency. p53 cell lines were obtained from the NCI. […] Cell proliferation was measured by MTT assay (Mosmann T. “Rapid colorimetric assay for cellular growth and survival: Application to proliferation and cytotoxicity assays”. J Immunol Methods 1983; 65:55-63, incorporated by reference here in its entirety). Caspase-3 activity was measured by ApoOne assay (Promega, Madison, Wis.). Assays for cellular ^59Fe-transferrin uptake and ^125I-transferrin binding were used as previously described in Chitambar, 1997.
as §1

HBL-2 cells [2] = assay: Cellular 59Fe-transferrin (iron) uptake by HBL-2 cells; type: cell-based, human; details: 24 h, increasing concentrations of GaM, FIG. 7
Protocol: (§3) Mantle cell lymphoma (HBL-2 (Human B-cell lymphoma-derived cell line), Granta, JVM-2, NCEB-1, Z138C) and DoHH2 cell lines were obtained from the British Columbia Cancer Agency. p53 cell lines were obtained from the NCI. Gallium maltolate and gallium nitrate were obtained from Titan Pharmaceuticals Inc. (San Francisco, Calif.) and Genta Incorporated (Berkley Heights, N.J.), respectively. Cell proliferation was measured by MTT assay (Mosmann T. “Rapid colorimetric assay for cellular growth and survival: Application to proliferation and cytotoxicity assays”. J Immunol Methods 1983; 65:55-63, incorporated by reference here in its entirety). Caspase-3 activity was measured by ApoOne assay (Promega, Madison, Wis.). Assays for cellular ^59Fe-transferrin uptake and ^125I-transferrin binding were used as previously described in Chitambar, 1997.
HBL-2 cells were incubated in complete medium in the presence of increasing concentrations of GaM. Radioiron (^59Fe-transferrin) was added to cells at the start of the incubation. After 24 h, cells were harvested, washed with phosphate buffered saline to remove unincorporated ^59Fe and centrifuged to pellet the cells. ^59Fe radioactivity in the cell pellet was counted in a gamma counter. The results showing that the amount of radioiron taken up by cells decreases with increasing concentrations of GaM are depicted in FIG. 7.

p53 mutant WTK-1 cells = assay: MTT cell growth assay, p53 mutant WTK-1 cells; type: cell-based, human; details: 72 h
Protocol: as §2, §1

CCRF-CEM cells = assay: MTT cell growth assay, CCRF-CEM cells (GaN-sensitive); type: cell-based, human; details: for IC50: MTT assay, 72 h incubation, read-out: IC50, inhibition of T lymphoma CCRF-CEM cell growth; for Inhibition of CCRF-CEM cell growth (in words): increasing concentrations, 72 h, MTT, FIG. 2
Protocol: CCRF-CEM cells were obtained from ATCC.
as §3
CCRF-CEM cells were plated at a density of 2×10^5 cells/ml in microwell plates (100 μL cell suspension per well) in the presence of increasing concentrations of gallium maltolate or maltol (subsequently referred to as the additives). After 72 h of incubation, 10 μL MTT (3-(4,5-dimethlythiazol-2-yl)-2,5-diphenyltetrazolium bromide) was added to each well and the incubation continued for 4 h at 37° C. Cells were then solubilized by the addition of 100 μL of 0.4 N HCl in isopropanol to each well and the absorbance of each well was read at 570 nm using a microplate reader. The effect of the additives on cell proliferation was determined by comparing the absorbance from wells containing the additives with the absorbance from wells in which the additives were omitted (decreased absorbance signifies decreased cell proliferation). Cell growth was expressed as a percentage of control (cell growth in the absence of additives). Cell proliferation was assessed after 72 h of incubation with gallium maltolate or maltol.
Cell growth was determined by MTT assay as described in Example 1 above. Values shown are means +/−S.E. (n=4).
To determine the effect of GaM on the growth of gallium nitrate-resistant (GnR) and -sensitive (GnS) cells, cells were plated in microwell plates and incubated with GaM. Cellular proliferation was measured by MTT assay after 72 h incubation with GaM. Values shown are means +/−S.E. (n=4).

caspase-3 [3] = assay: Caspase-3 activity (apo-One assay) in GnR CCRF-CEM cells; type: cell-based, human; details: 24 h incubation, FIG. 5D
Protocol: as §3
After the incubation period, caspase-3 activity was measured by apo-One™ assay.

p53 null HN-32 cells = assay: MTT cell growth assay, p53 null HN-32 cells; type: cell-based, human; details: 72 h
Protocol: as §2, §1

[4] = test system: transferrin (Tf) receptor; assay: 125I-transferrin binding assay, cell surface transferrin receptor density in HBL-2 cells; type: cell-based, human; details: FIG. 8
Protocol: as §3
To determine the mechanism by which GaM acts on cells, cellular transferrin receptor expression was evaluated in HBL-2 cells. The effect of GaM on cellular transferrin receptor expression was determined using a ^125I-transferrin (Tf) binding assay that measures the binding of the ligand Tf to its receptor (TfR). HBL-2 cells were incubated with increasing concentrations of GaM for 24 and 48 h and then analyzed for Tf binding using an established method. The amount of radioactive Tf bound to cellular TfR was calculated using Scatchard analysis.

caspase-3 [5] = assay: Caspase-3 activation (apo-One assay) in HBL-2 cells; type: cell-based, human; details: for Caspase-3 activity in exposed cells, dose dependence: see FIG. 4
Protocol: as §3
After incubation with these compounds, the cells were analyzed for apoptosis using the commercially available apo-One™ assay that measures caspase-3 activation. Data points are the means and S.E. of an experiment performed in triplicate.

HBL-2 cells [6] = assay: MTT cell proliferation assay, mantle cell lymphoma HBL-2 cells; type: cell-based, human; details: 72 h, FIG. 3
Protocol: Mantle cell lymphoma (HBL-2 (Human B-cell lymphoma-derived cell line), Granta, JVM-2, NCEB-1, Z138C) and DoHH2 cell lines were obtained from the British Columbia Cancer Agency. p53 cell lines were obtained from the NCI. […] (San Francisco, Calif.) and Genta Incorporated (Berkley Heights, N.J.), respectively. Cell proliferation was measured by MTT assay (Mosmann T. “Rapid colorimetric assay for cellular growth and survival: Application to proliferation and cytotoxicity assays”. J Immunol Methods 1983; 65:55-63, incorporated by reference here in its entirety). Caspase-3 activity was measured by ApoOne assay (Promega, Madison, Wis.). Assays for cellular ^59Fe-transferrin uptake and ^125I-transferrin binding were used as previously described in Chitambar, 1997. […] Cells were then solubilized by the addition of 100 μL 0.4 N HCl in isopropanol to each well and the absorbance of each well was read at 570 nm using a spectrophotometer. Cell proliferation was measured after a 72 h incubation period. The effect of the additives on cell proliferation was determined by comparing the absorbance from wells with the additives with the absorbance from wells in which the additives were omitted (decreased absorbance signifies decreased cell proliferation). Cell growth was expressed as a percentage of control (cell growth in the absence of additives).

lymphoma cell lines = assay: Annexin V staining of cells exposed to gallium compounds; type: cell-based; details: cells exposed to GaN or GaM
[7] = test system: GaN-resistant CCRF-CEM cells; assay: MTT cell growth assay, gallium nitrate-resistant (GnR) CCRF-CEM cells; type: cell-based, human
Protocol: as §2, §1

IC50 [1]: 15 to 30 µM
IC50 (CCRF-CEM cells): 29 µM
IC50 ([7]; MTT assay, 72 h incubation, read-out: IC50, growth inhibition of GaN-resistant cells): 70 µM
Compound: Cc1occc(=O)c1[O-].Cc1occc(=O)c1[O-].Cc1occc(=O)c1[O-].[Ga+3] [GaM, gallium maltolate]
IC50 (p53 wt TK-6 cells): 18 µM
Growth of p53 wt TK-6 cells (in words) (p53 wt TK-6 cells; FIG. 6): inhibited to a similar extent
Amount of radioiron (59Fe) taken up by cells (HBL-2 cells [2]): decreases
IC50 (p53 mutant WTK-1 cells): 45 µM
Growth of p53 mutant WTK-1 cells (in words) (p53 mutant WTK-1 cells; FIG. 6): inhibited to a similar extent
Inhibition of CCRF-CEM cell growth (in words) (CCRF-CEM cells): inhibited
Caspase-3 activation in GnR cells (caspase-3 [3]): activates caspase-3
IC50 (p53 null HN-32 cells): 45 µM
Growth of p53 null HN-32 cells (in words) (p53 null HN-32 cells; FIG. 6): inhibited to a similar extent
Number of TfRs on the cell surface ([4]; 24 h, 25 and 50 μM GaM): increase the number of TfRs
Number of TfRs on the cell surface ([4]; 48 h, 25 μM GaM): increases TfR number
Caspase-3 activation in HBL-2 cells (caspase-3 [5]; 48 h incubation, similar concentrations of GaM and GaN, FIG. 4): activated
Caspase-3 activity in exposed cells, dose dependence (caspase-3 [5]): dose-dependent increase
Inhibition of HBL-2 cell proliferation, GaM compared with GaN (in words) (HBL-2 cells [6]): much lower concentrations of gallium were required to inhibit cell proliferation
Annexin V staining (lymphoma cell lines): increase
Proliferation of GnR cells resistant to GaN (in words) ([7]; FIG. 5): inhibits proliferation

Compound: Cc1occc(=O)c1O [Maltol, maltol, reference compound]
Inhibition of CCRF-CEM cell growth (in words) (CCRF-CEM cells): did not inhibit cell growth

Compound: O=[N+]([O-])[O-].O=[N+]([O-])[O-].O=[N+]([O-])[O-].[Ga+3] [GaN, gallium nitrate, reference compound]
IC50 [1]: 45 to 400 µM
IC50 (CCRF-CEM cells): 103 µM
Caspase-3 activation in GnR cells (caspase-3 [3]): not
Caspase-3 activity in exposed cells, dose dependence (caspase-3 [5]): dose-dependent increase
Annexin V staining (lymphoma cell lines): increase
